Some results are limits rather than exact numbers.

Assay [1] has as its target Adenosine receptor A2a (Rattus norvegicus, UniProt P30543). Nature of the assay: Displacement of [3H]CGS21680 from adenosine A2A receptor in rat brain striatal membrane after 60 mins by liquid scintillation counting analysis. Type of assay: cell membranes. (Displacement assays read how much labelled ligand stays bound in the presence of the test substance.)
Assay [2] has as its target Adenosine receptor A2a (Rattus norvegicus) (UniProt P30543). Nature of the assay: Displacement of [3H]CGS21680 from adenosine A2A receptor in rat brain striatal membrane at 1 uM after 60 mins by liquid scintillation counting analysis. Type of assay: cell membranes.
In assay [3] the target is T1, Adenosine receptor A1 (Homo sapiens, UniProt P30542).
T1 sequence (P30542 whole entry): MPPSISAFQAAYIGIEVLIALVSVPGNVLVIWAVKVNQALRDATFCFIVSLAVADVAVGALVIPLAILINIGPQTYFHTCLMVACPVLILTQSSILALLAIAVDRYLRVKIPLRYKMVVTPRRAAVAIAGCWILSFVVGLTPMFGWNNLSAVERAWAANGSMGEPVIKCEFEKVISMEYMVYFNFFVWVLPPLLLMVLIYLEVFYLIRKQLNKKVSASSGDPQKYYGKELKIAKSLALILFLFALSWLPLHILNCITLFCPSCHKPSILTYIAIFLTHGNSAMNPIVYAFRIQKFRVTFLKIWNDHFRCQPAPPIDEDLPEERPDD
As to the kind of experiment: Displacement of [3H]CCPA from human recombinant adenosine A1 receptor expressed in CHO cells 90 mins by liquid scintillation counting analysis. Type of assay: cell-based.

Assay [4] has as its target T2, Adenosine receptor A3 (Homo sapiens, UniProt P0DMS8).
T2 sequence (P0DMS8 whole entry): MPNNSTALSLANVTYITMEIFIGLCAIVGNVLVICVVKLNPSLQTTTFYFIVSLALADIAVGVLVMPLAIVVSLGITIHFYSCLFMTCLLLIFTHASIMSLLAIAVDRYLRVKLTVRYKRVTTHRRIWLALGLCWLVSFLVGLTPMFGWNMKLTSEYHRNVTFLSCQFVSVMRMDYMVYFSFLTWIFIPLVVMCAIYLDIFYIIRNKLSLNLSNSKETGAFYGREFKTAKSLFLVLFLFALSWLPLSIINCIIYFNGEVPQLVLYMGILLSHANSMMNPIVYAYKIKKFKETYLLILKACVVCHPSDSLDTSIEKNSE
As to the kind of experiment: Displacement of [3H]NECA from human recombinant adenosine A3 receptor expressed in CHO cells after 180 mins by liquid scintillation counting analysis. Type of assay: cell-based.

Assay [5] deals with T3, Adenosine receptor A1 (Rattus norvegicus) (UniProt P25099).
T3 sequence (whole entry): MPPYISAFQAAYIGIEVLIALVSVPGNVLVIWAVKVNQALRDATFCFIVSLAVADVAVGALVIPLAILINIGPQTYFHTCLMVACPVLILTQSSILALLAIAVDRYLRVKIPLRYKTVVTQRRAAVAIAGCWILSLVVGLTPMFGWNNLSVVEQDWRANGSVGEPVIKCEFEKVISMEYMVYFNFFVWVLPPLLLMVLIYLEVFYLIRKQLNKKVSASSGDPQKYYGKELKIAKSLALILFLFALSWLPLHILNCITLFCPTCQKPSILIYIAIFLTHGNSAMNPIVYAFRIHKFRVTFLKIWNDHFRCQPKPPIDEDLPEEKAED
Nature of the assay: Displacement of [3H]CCPA from adenosine A1 receptor in rat brain cortical membrane at 1 uM after 90 mins by liquid scintillation counting analysis. Type of assay: cell membranes.

For assay [6], the target named is T4, Adenosine receptor A1 (Rattus norvegicus, UniProt P25099).
T4 sequence (P25099 whole entry): T3 sequence (whole entry)
Nature of the assay: Displacement of [3H]CCPA from adenosine A1 receptor in rat brain cortical membrane after 90 mins by liquid scintillation counting analysis. It is filed as cell membranes.

Assay [7] has as its target T5, Adenosine receptor A3 (Homo sapiens) (UniProt P0DMS8).
T5 sequence (whole entry): T2 sequence (P0DMS8 whole entry)
Nature of the assay: Displacement of [3H]NECA from human recombinant adenosine A3 receptor expressed in CHO cells at 1 uM after 180 mins by liquid scintillation counting analysis. It is filed as cell-based.

Assay [8] concerns the target Adenosine receptor A2a (Homo sapiens, UniProt P29274). As to the kind of experiment: Agonist activity at human recombinant adenosine A2A receptor expressed in CHO cells assessed as [3H]cAMP accumulation after 15 mins by liquid scintillation counting. It is filed as functional, cell-based.
Assay [9] has as its target T1, Adenosine receptor A1.
For assay [10], the target named is T6, Adenosine receptor A2b (Homo sapiens) (UniProt P29275).
T6 sequence (whole entry): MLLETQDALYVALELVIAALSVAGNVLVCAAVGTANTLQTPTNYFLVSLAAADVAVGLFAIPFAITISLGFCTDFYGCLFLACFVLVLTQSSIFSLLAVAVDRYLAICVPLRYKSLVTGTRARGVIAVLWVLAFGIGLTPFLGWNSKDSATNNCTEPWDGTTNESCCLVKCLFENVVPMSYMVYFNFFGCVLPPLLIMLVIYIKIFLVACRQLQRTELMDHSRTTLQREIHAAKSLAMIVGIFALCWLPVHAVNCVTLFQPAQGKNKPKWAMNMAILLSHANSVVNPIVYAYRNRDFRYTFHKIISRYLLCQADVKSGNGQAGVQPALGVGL
Nature of the assay: Displacement of [3H]PSB-603 from human recombinant adenosine A2B receptor expressed in CHO cells at 10 uM after 75 mins by liquid scintillation counting analysis. It is filed as cell-based.

The target in assay [11] is T2, Adenosine receptor A3. Nature of the assay: Displacement of [3H]NECA from human recombinant adenosine A3 receptor.

Sequence of Adenosine receptor A2a (Rattus norvegicus) (P30543 whole entry): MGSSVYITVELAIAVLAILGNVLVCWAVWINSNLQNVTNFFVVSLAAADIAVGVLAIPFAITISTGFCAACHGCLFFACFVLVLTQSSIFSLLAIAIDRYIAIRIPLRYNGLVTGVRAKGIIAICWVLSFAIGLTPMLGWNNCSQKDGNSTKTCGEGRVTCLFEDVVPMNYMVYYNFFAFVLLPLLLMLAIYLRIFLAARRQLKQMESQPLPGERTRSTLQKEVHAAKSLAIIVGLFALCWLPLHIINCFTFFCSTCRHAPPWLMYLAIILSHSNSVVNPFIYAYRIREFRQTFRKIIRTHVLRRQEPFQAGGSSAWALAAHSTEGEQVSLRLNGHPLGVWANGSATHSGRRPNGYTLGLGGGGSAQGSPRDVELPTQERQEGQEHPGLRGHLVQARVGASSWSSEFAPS
Sequence of Adenosine receptor A2a (Rattus norvegicus, UniProt P30543) (P30543 whole entry): as above
Sequence of Adenosine receptor A2a (Homo sapiens, UniProt P29274) (P29274 whole entry): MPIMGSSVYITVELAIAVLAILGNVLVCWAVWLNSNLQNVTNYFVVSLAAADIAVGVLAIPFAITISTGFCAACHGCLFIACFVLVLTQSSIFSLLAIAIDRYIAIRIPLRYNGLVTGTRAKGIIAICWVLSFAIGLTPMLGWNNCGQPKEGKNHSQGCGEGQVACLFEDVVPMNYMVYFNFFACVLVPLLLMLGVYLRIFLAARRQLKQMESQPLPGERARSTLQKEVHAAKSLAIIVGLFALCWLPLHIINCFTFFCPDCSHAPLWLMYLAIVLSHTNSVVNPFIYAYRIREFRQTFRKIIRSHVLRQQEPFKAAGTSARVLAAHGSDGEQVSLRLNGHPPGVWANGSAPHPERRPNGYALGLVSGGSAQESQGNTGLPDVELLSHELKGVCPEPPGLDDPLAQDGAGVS

The Ki is the dissociation constant of the complex between target and ligand, obtained from inhibition or displacement. By inhibition is commonly meant the drop in the measured response relative to a control, in per cent. In turn, `Nc1nc(N/N=C(\CO)[C@H](O)[C@@H](O)[C@@H](O)CO)nc2c1ncn2[C@@H]1O[C@H](CO)[C@@H](O)[C@H]1O` returned a Ki on Adenosine receptor A2a [1] greater than 1000 nM. For the same molecule, the inhibition in [2] came to 34%.

Consider `COc1ccc(/C=N/Nc2nc(N)c3ncn([C@@H]4O[C@H](CO)[C@@H](O)[C@H]4O)c3n2)cc1`, for which the values for the Ki at Adenosine receptor A2a [1] and at Adenosine receptor A1 [3] were 12 nM and 723 nM, respectively.

`Nc1nc(N/N=C/c2ccc(Cl)cc2)nc2c1ncn2[C@@H]1O[C@H](CO)[C@@H](O)[C@H]1O`: affinity at Adenosine receptor A2a [1] was put at a Ki of 16.1 nM.

In turn, `CN(/N=C/[C@@H](O)[C@H](O)[C@@H](O)[C@@H](O)CO)c1nc(N)c2ncn([C@@H]3O[C@H](CO)[C@@H](O)[C@H]3O)c2n1` displayed a Ki at Adenosine receptor A2a [1] greater than 1000 nM. In assay [2], this molecule registered an inhibition of 31%.

For `CN(NC(=S)Nc1ccccc1)c1nc(N)c2ncn([C@@H]3O[C@H](CO)[C@@H](O)[C@H]3O)c2n1`, the inhibition constant (Ki) on Adenosine receptor A3 [4], on Adenosine receptor A2a [1] and at Adenosine receptor A1 [6] was greater than 1000 nM in each case. Besides, the inhibition in [2] was found to be 16%; in assay [5], 1%; in assay [7] it was 36%.

In turn, `CN(/N=C/[C@@H](O)[C@@H](O)[C@@H](O)CO)c1nc(N)c2ncn([C@@H]3O[C@H](CO)[C@@H](O)[C@H]3O)c2n1` gave a Ki at Adenosine receptor A2a [1] greater than 1000 nM. Besides, in [2], the inhibition was 7%.

`Nc1nc(N/N=C/c2ccc(Cl)cc2O)nc2c1ncn2[C@@H]1O[C@H](CO)[C@@H](O)[C@H]1O` had a Ki on Adenosine receptor A2a [1] of 91.7 nM.

Usually EC50 stands for the concentration at which the effect is half-maximal. `Nc1nc(N/N=C/[C@@H](O)[C@H](O)[C@H](O)[C@@H](O)CO)nc2c1ncn2[C@@H]1O[C@H](CO)[C@@H](O)[C@H]1O` came in with a Ki on Adenosine receptor A2a [1] of 329 nM. Also, the EC50 at Adenosine receptor A2a [8] was 1440 nM.

In turn, `Nc1nc(N/N=C/[C@@H](O)[C@@H](O)[C@@H](O)CO)nc2c1ncn2[C@@H]1O[C@H](CO)[C@@H](O)[C@H]1O` came in with a Ki at Adenosine receptor A2a [1] greater than 1000 nM. In [2], this molecule returned an inhibition of 33%.

`CN(/N=C/[C@H](O)[C@H](O)[C@@H](O)[C@@H](O)CO)c1nc(N)c2ncn([C@@H]3O[C@H](CO)[C@@H](O)[C@H]3O)c2n1` gave a Ki on Adenosine receptor A2a [1] greater than 1000 nM. The molecule further came in with an inhibition in [2] of 2%.

As for `Nc1nc(N/N=C/[C@@H](O)[C@H](O)[C@@H](O)[C@@H](O)CO)nc2c1ncn2[C@@H]1O[C@H](CO)[C@@H](O)[C@H]1O`, the inhibitory constant (Ki) at Adenosine receptor A2a [1] was greater than 1000 nM. In [2], this molecule returned an inhibition of 42%.

In the case of `Nc1nc(N/N=C/C2CCCCC2)nc2c1ncn2[C@@H]1O[C@H](CO)[C@@H](O)[C@H]1O` [BINODENOSON], the Ki on Adenosine receptor A3 [4] turned out to be 52.6 nM; at Adenosine receptor A2a [1] it was 25.5 nM; at Adenosine receptor A1 [9] it was 48 µM; at Adenosine receptor A1 [3] it was 169 nM; on Adenosine receptor A1 [6], 70.8 nM; at Adenosine receptor A3 [11], 903 nM. Further, the inhibition in assay [10] was found to be 17%.

`Nc1nc(N/N=C/c2ccc(Cl)c(Cl)c2)nc2c1ncn2[C@@H]1O[C@H](CO)[C@@H](O)[C@H]1O` registered a Ki at Adenosine receptor A2a [1] of 24.4 nM. At Adenosine receptor A2a [8], the EC50 came to 1660 nM.

For the molecule `CN(/N=C/[C@H](O)[C@@H](O)[C@@H](O)[C@H](O)CO)c1nc(N)c2ncn([C@@H]3O[C@H](CO)[C@@H](O)[C@H]3O)c2n1`, the inhibitory constant (Ki) on Adenosine receptor A2a [1] was greater than 1000 nM. The molecule also had an inhibition in assay [2] of 25%.

Take `CN(/N=C(\CO)[C@H](O)[C@@H](O)[C@@H](O)CO)c1nc(N)c2ncn([C@@H]3O[C@H](CO)[C@@H](O)[C@H]3O)c2n1`: the Ki on Adenosine receptor A2a [1] was greater than 1000 nM. In assay [2], this molecule showed an inhibition of 25%.

The molecule `CN(NC(=O)Nc1ccccc1)c1nc(N)c2ncn([C@@H]3O[C@H](CO)[C@@H](O)[C@H]3O)c2n1` returned an inhibitory constant (Ki) on Adenosine receptor A2a [1] greater than 1000 nM. In assay [2], the inhibition was determined as 11%.

As for `Nc1nc(N/N=C/[C@H](O)[C@H](O)[C@@H](O)[C@@H](O)CO)nc2c1ncn2[C@@H]1O[C@H](CO)[C@@H](O)[C@H]1O`, the Ki at Adenosine receptor A2a [1] was greater than 1000 nM. Besides, the inhibition in assay [2] was determined as 33%.
